These compounds were tested against RIPK2 enzyme (Homo sapiens (Human), UniProt O43353) (assay: RIPK2 inhibition assay, TR-FRET LanthaScreen Tracer 199 screening assay). Settings: 5 nM RIPK2 enzyme, Tracer 199 at 50 nM, Eu-anti-His Antibody at 2 nM, 1 hour incubation.
Assay type: binding
Procedure, shortened: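 TR-FRET binding displacement: 5 nM RIPK2, 50 nM Tracer 199, 2 nM Eu-anti-His antibody in 1× kinase reaction buffer, 1 h, read at room temperature (340 ex/665 and 615 em). No-enzyme background subtracted; percent inhibition versus uninhibited controls, IC50 from unconstrained variable-slope fit.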

RIPK2 enzyme, sequence (O43353 whole entry): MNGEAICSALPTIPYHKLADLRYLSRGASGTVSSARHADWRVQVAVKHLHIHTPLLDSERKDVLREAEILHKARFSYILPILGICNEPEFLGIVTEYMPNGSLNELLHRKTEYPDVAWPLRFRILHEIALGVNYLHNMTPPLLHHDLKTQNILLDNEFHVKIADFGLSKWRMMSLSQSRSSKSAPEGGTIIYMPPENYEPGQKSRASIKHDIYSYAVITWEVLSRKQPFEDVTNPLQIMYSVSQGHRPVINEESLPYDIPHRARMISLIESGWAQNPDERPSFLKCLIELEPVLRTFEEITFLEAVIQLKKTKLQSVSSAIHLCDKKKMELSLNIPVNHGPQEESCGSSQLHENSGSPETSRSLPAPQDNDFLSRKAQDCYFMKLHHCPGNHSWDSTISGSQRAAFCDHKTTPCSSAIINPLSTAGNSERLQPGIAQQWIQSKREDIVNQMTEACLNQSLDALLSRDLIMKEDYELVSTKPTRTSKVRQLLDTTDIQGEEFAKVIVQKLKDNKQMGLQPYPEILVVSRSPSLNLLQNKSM

SMILES	IC50
CC1C(c2cc3c(Nc4cc5ncsc5cc4F)c(F)cnc3s2)CCCN1C (centres unmarked) [Example 123a, N-(2-(1,2-dimethylpiperidin-3-yl)-5-fluorothieno[2,3-b]pyridin-4-yl)-6-fluorobenzo[d]thiazol-5-amine]	≥ 50 nM
CCN1CCC[C@H](c2cc3c(Nc4c(F)cc5scnc5c4F)ccnc3s2)[C@@H]1C [Example 74b, N-(2-((2S,3S)-1-ethyl-2-methylpiperidin-3-yl)thieno[2,3-b]pyridin-4-yl)-4,6-difluorobenzo[d]thiazol-5-amine]	≤ 10 nM
CC1(C)C(c2cc3c(Nc4c(F)cc5scnc5c4F)ccnc3s2)CCN1CCO (centres unmarked) [Example 98, 2-(3-(4-((4,6-difluorobenzo[d]thiazol-5-yl)amino)thieno[2,3-b]pyridin-2-yl)-2,2-dimethylpyrrolidin-1-yl)ethan-1-ol]	≤ 10 nM
CC1C(c2cc3c(Nc4ccc5scnc5c4)ccnc3s2)CCCN1CCO (centres unmarked) [Example 20, 2-(3-(4-(benzo[d]thiazol-5-ylamino)thieno[2,3-b]pyridin-2-yl)-2-methylpiperidin-1-yl)ethan-1-ol]	≤ 10 nM
CCN1CCC=C(c2cc3c(Nc4cc5ncsc5cc4F)ccnc3s2)[C@@H]1C [Example 52b, N-(2-(1-ethyl-2-methyl-1,2,5,6-tetrahydropyridin-3-yl)thieno[2,3-b]pyridin-4-yl)-6-fluorobenzo[d]thiazol-5-amine]	10 to 20 nM

Results, then the compound that gave them:

IC50	SMILES
20 to 50 nM	CN1CCC(c2cc3c(Nc4ccc5scnc5c4)ccnc3s2)C12CCOC2 (centres unmarked) [Example 43, N-(2-(1-methyl-7-oxa-1-azaspiro[4.4]nonan-4-yl)thieno[2,3-b]pyridin-4-yl)benzo[d]thiazol-5-amine]
≤ 10 nM	C[C@H]1NCCC[C@@H]1c1cc2c(Nc3ccc4scnc4c3F)ccnc2s1 [Example 56a, 4-fluoro-N-(2-((2R,3S)-2-methyl-piperidin-3-yl)thieno[2,3-b]pyridin-4-yl)benzo[d]thiazol-5-amine]
≥ 50 nM	CN1CCC(c2cc3c(Nc4cc5ncsc5cc4F)ccnc3s2)C12CCOCC2 (centres unmarked) [Example 85, 6-fluoro-N-(2-(1-methyl-8-oxa-1-azaspiro[4.5]decan-4-yl)thieno[2,3-b]pyridin-4-yl)benzo[d]thiazol-5-amine]

— patent US11168093B2, “Thienopyridine inhibitors of RIPK2” (Celgene Corporation, priority 2018, dated 2021)
